Patent US10337049B2, “Universal methylation profiling methods” (THE TRUSTEES OF COLUMBIA UNIVERSITY IN THE CITY OF NEW YORK, priority 2013, dated 2019)

Experiments:
[1] = Photo-irradiation of 16mer oligonucleotide, single base extension-MS analysis; type: physicochemical; conditions: primer 5′-TGCCGCACTC-3′, MS of elongated primer
Procedure: After HPLC purification, the modified 16mer was characterized by MALDI-TOF MS yielding a peak with MW of 5001, equal to the calculated mass. Then photo-irradiation of oligo [NT] ID NO: 1) was conducted to convert C* to a U analog. The outcome for conversion of C* in DNA was detected by using single base extension-MS analysis (FIG. 7). In this analysis, the photo-irradiated oligonucleotide was annealed with a primer […] 2964) (SEQ ID NO: 2), then incubated with ddNTPs and DNA polymerase. With the aid of DNA polymerase, one of the 4 ddNTPs can be selectively incorporated onto the 3' end of the primer. Photo-chemistry induced conversion of C to U should be able to direct the incorporation of ddA, resulting in an elongated primer with a MW of 3261, otherwise ddG should be incorporated giving an elongated primer of MW 3277. […] In the control experiment, photo-irradiation of the unmodified counterpart [NT] ID NO: 3) was conducted under the same conditions. […] We also measured possible photoirradiation-induced DNA damage. Under the conditions we used (300 nm, over 10 h) no DNA damage was observed.

[2] = Photo-irradiation of 5 position-modified deoxycytidine at about 300 nm, HPLC/UV/MS monitoring; type: physicochemical; conditions: for photochemical conversion to U analog on photo-irradiation: about 300 nm, aqueous solution, up to 12 h
Procedure: Photo-irradiation of 5-All-OMC at about 300 nm was then conducted in aqueous solution for up to 12 h, and the reaction products separated and monitored by HPLC and UV absorption.
Both C and 5-methyl-C remain intact after photo-irradiation under the same conditions. […] To further verify this conversion, 5-All-OMU was synthesized and characterized. […] The photochemically generated 5-All-OMU was also characterized by ^1HNMR.

[3] = Photoirradiation of 5-PhAll-OMC with 350 nm light in the presence of triplet sensitizer thioxanthone, HPLC analysis; type: physicochemical; conditions: 20 min
Text: 5-PhAll-OMC was irradiated with 350 nm light in the presence of the triplet photosensitizer thioxanthone (TX).
The new product was found 1 mass unit higher than the starting material 5-PhAll-OMC, indicating possible U analog was generated from 5-PhAll-OMC. […] The ^13C NMR spectra, shown in FIG. 27, unambiguously confirm the formation of a [2+2] cycloadduct in either straight or cross configuration.

[4] = Laser flash photolysis, triplet energy transfer from thioxanthone; conditions: 355 nm pulsed laser, argon saturated acetonitrile, quencher 0 to 0.25 mM
pCa17 plasmid = test: in vivo functional assay / restriction protection assay of M.SssI variants (HpaII digestion of isolated plasmid); conditions: 200 ng plasmid, 1 U HpaII, 37° C., 1 hour, agarose gel

5′-TACGACGAGTGCGGCA-3′: unmodified counterpart 16mer, control (DNA, backbone not given here)
ddNTP incorporated in single base extension after photo-irradiation of template [1]: ddGTP

C=CCOCc1cn([C@H]2C[C@H](O)[C@@H](CO)O2)c(=O)nc1N [5-All-OMC, 5-allyloxymethyl-dC]
photochemical conversion to U analog on photo-irradiation [2]: high efficiency
HPLC profile during photo-irradiation ([2]; after 3 h of irradiation): the main peak is the starting material
HPLC profile during photo-irradiation, starting material ([2]; after 12 h photo-irradiation): mostly consumed

Cc1c[nH]c(=O)nc1N [5-methyl-C, 5-methylcytosine]
photochemical conversion to U analog on photo-irradiation [2]: remain intact

Nc1cc[nH]c(=O)n1 [C, Cytosine]
ddNTP incorporated in single base extension after photo-irradiation of template [1]: ddATP
photochemical conversion to U analog on photo-irradiation [2]: remain intact

O=c1c2ccccc2sc2ccccc12 [TX, thioxanthone]
concentration of the sensitizer after photoirradiation [3]: remained unchanged

OCC=Cc1ccccc1 [cinnamyl alcohol]
rate constant of quenching of thioxanthone triplet (triplet energy transfer), kq [4]: 7.8e+09 M⁻¹ s⁻¹

wild-type: wild type CpG specific DNA methyltransferase M.SssI expressed from pCAL7
resistance of isolated M.SssI expressing plasmid to HpaII digestion (pCa17 plasmid): completely resistant
